Measurements published in ChEMBL document CHEMBL1147359, “Antitumor agents, 138. Rotenoids and isoflavones as cytotoxic constitutents from Amorpha fruticosa” (1993).
Converted amounts (≈) assume the structure as drawn. The source made the active and inactive calls. No cut-off for these calls is given here.

Tests used:
RPMI-7951 [1] = assay: Cytotoxicity against human RPMI7951 cells; assay type: functional; conditions: read-out: ED50 (the source's name)
HCT-8 [2] = assay: Cytotoxicity against human HCT8 cells; assay type: functional; conditions: read-out: ED50 (the source's name)
A549 [3] = assay: Cytotoxicity against human A549 cells at 10 ug/ml; assay type: functional, cell-based
TE-671 [4] = assay: Cytotoxicity against human TE671 cells; assay type: functional; conditions: read-out: ED50 (the source's name)
P388 [5] = assay: Cytotoxicity against mouse P388 cells; assay type: functional; conditions: read-out: ED50 (the source's name)
KB [6] = assay: Cytotoxicity against human KB cells; assay type: functional; conditions: read-out: ED50 (the source's name)
TE-671 [7] = assay: Cytotoxicity against human TE671 cells at 10 ug/ml; assay type: functional, cell-based
A549 [8] = assay: Cytotoxicity against human A549 cells; assay type: functional; conditions: read-out: ED50 (the source's name)
RPMI-7951 [9] = assay: Cytotoxicity against human RPMI7951 cells at 10 ug/ml; assay type: functional, cell-based
KB [10] = assay: Cytotoxicity against human KB cells at 10 ug/ml; assay type: functional, cell-based
HCT-8 [11] = assay: Cytotoxicity against human HCT8 cells at 10 ug/ml; assay type: functional, cell-based
P388 [12] = assay: Cytotoxicity against mouse P388 cells at 10 ug/ml; assay type: functional, cell-based

Compound	EC50 (RPMI-7951 [1]) [µg/mL]	EC50 (HCT-8 [2]) [µg/mL]	ED50 (A549 [3])	EC50 (TE-671 [4]) [µg/mL]	EC50 (P388 [5]) [µg/mL]	EC50 (KB [6]) [µg/mL]	ED50 (TE-671 [7])	EC50 (A549 [8]) [µg/mL]	ED50 (RPMI-7951 [9])	ED50 (KB [10])	ED50 (HCT-8 [11])	ED50 (P388 [12])
COc1cc2c(cc1OC)[C@@H]1C(=O)c3ccc4c(c3O[C@@H]1CO2)C[C@H](C(C)(C)O[C@@H]1O[C@H](CO)[C@@H](O)[C@H](O)[C@H]1O)O4	4.44 (≈ 7.73 µM)	7.43 (≈ 12.9 µM)	inactive	2.95 (≈ 5.13 µM)	6.68 (≈ 11.6 µM)	6.32 (≈ 11 µM)	–	–	–	–	–	–
COc1ccc2c(=O)c(-c3cc(OC)c(OC)cc3OC)coc2c1	0.49 (≈ 1.43 µM)	4.63 (≈ 13.5 µM)	inactive	–	0.53 (≈ 1.55 µM)	0.55 (≈ 1.61 µM)	inactive	–	–	–	–	–
COc1cc2c(cc1OC)[C@]1(O)C(=O)c3ccc4c(c3O[C@@H]1CO2)C[C@H](C(C)(C)O)O4	0.73 (≈ 1.7 µM)	0.56 (≈ 1.31 µM)	–	0.12 (≈ 0.28 µM)	0.59 (≈ 1.38 µM)	3.67 (≈ 8.57 µM)	–	9.28 (≈ 21.7 µM)	–	–	–	–
COc1ccc(-c2coc3c(OC)c(O)ccc3c2=O)cc1	–	–	inactive	–	–	–	inactive	–	inactive	inactive	inactive	inactive
COc1ccc(-c2coc3cc(O)c(OC)cc3c2=O)cc1	–	–	inactive	–	–	–	inactive	–	inactive	inactive	inactive	inactive
C=C(CO)[C@H]1Cc2c(ccc3c2O[C@@H]2COc4cc(OC)c(OC)cc4[C@@H]2C3=O)O1 [AMORPHIGENIN]	0.05 (≈ 0.122 µM)	0.03 (≈ 0.0731 µM)	–	< 0.01	0.04 (≈ 0.0975 µM)	0.04 (≈ 0.0975 µM)	–	0.05 (≈ 0.122 µM)	–	–	–	–
COC1=CC(=O)[C@]2(C=C1OC)OC[C@H]1Oc3c(ccc4c3C=CC(C)(C)O4)C(=O)[C@H]12 [AMORPHISPIRONONE]	0.61 (≈ 1.49 µM)	–	inactive	–	–	0.58 (≈ 1.41 µM)	inactive	–	–	–	inactive	inactive
C=C(CO)[C@H]1Cc2c(ccc3c2O[C@@H]2COc4cc(OC)c(OC)cc4[C@]2(O)C3=O)O1 [DABINOL]	< 0.001	< 0.001	–	< 0.001	< 0.001	< 0.001	–	< 0.001	–	–	–	–
COc1cc2c(cc1OC)[C@@H]1C(=O)c3ccc4c(c3O[C@@H]1CO2)C[C@H](C(C)(C)O)O4 [DALPANOL]	4.83 (≈ 11.7 µM)	0.48 (≈ 1.16 µM)	–	0.49 (≈ 1.19 µM)	–	0.89 (≈ 2.16 µM)	–	0.86 (≈ 2.09 µM)	–	–	–	inactive
COc1cc2c(cc1OC)[C@]1(O)C(=O)c3ccc4c(c3O[C@@H]1CO2)C=CC(C)(C)O4 [TEPHROSIN]	0.07 (≈ 0.171 µM)	0.09 (≈ 0.219 µM)	–	0.05 (≈ 0.122 µM)	0.06 (≈ 0.146 µM)	0.36 (≈ 0.877 µM)	–	< 0.001	–	–	–	–
